Patent publication US20230064189A1, “1H-PYRAZOLO[3,4-D]PYRIMIDINE COMPOUNDS USEFUL FOR THE TREATMENT OF PLATINUM-RESISTANT CANCER” (IMPERIAL COLLEGE INNOVATIONS LIMITED, priority 2019, published 2023)

What was measured:
PEO4 cells [1] = test: Phenotypic apoptosis assay (caspase 3/7 normalised to MTT) plus/minus cisplatin in PEO4; type: cell-based; details: 24 hours
Description: (§1) MTT is bioreduced by mitochondrial dehydrogenase enzymes into a coloured solid formazan product. MTT reagent (Sigma, UK) was initially prepared by dissolving in PBS at a concentration of 3 mg/ml. […] After incubation for 3 h at 37° C. 5% CO2, an equal volume of stop solution (10% SDS in 0.01% HCl) was added and formed formazan crystals were allowed to dissolve shaking overnight. The following day, the optical density was read at 570 nm and analysis performed as per each assay type.
(§2) The caspase 3/7 activity of cells following treatment with inhibitor compounds or vehicle (DMSO) was determined using the Caspase-Glo® 3/7 Assay (Catalogue number G8093, Promega, US) according to manufacturer's instructions. Briefly, 10,000 cells per well for PEO1 and PEO4 cell lines or 5000 cells per well for SKOV3 cell line were grown in 96 well plates in a final volume of 50 μl and following relevant drug treatment of cells (example compound±cisplatin, comparative example compound±cisplatin, or vehicle±cisplatin) for 24 hours, an equal volume of Caspase-Glo® Reagent containing a luminogenic substrate for Caspase 3 and Caspase 7 was added i.e. if cells cultured in 50 μl of media, 50 μl of caspase reagent was added. After 1 h incubation at room temperature in the dark, the luminescence of each sample was measured in a plate-reading luminometer (LUMIstar OPTIMA, BMG Labtech, Germany). Caspase 3/7 activity data was normalised to corresponding viability data from MTT and analysis was performed according to each experimental set-up.
(§3) Phenotypic apoptosis assays were performed to determine the level of caspase 3/7 dependent apoptotic induction of each inhibitor compound in the presence or absence of cisplatin (cddp). PEO4 and SKOV3 cells were seeded out 24 hours prior to drug treatments. […] 5% CO2. […] Duplicate plates were set up for each experiment for caspase and MTT assays. Caspase and MTT assays were carried out according to the protocols described above.
(§4) Data shown in FIGS. 2A and 2B are n=3±s.e.m. Statistical significance was calculated using student t-test using GraphPad Prism software ** p<0.01, * p<0.05.

SKOV3 cells = test: Phenotypic apoptosis assay (caspase 3/7 normalised to MTT) plus/minus cisplatin in SKOV3; type: cell-based; details: for activity in phenotypic in vitro apoptosis platinum re-sensitisation assays: inhibitor 6.67 μM + cisplatin 25 μM
Description: Data shown is n=3±s.e.m; ** p<0.01, * p<0.0^5.
as §1, §2, §3, §4

AKT2 = AKT2 (Homo sapiens, UniProt P31751); test: AKT2 enzymatic inhibition assay (HTRF KinEASE); type: biochemical; details: read-out: AKT2 pIC50 (converted)
Chain of AKT2 (P31751 152-409 limits assumed): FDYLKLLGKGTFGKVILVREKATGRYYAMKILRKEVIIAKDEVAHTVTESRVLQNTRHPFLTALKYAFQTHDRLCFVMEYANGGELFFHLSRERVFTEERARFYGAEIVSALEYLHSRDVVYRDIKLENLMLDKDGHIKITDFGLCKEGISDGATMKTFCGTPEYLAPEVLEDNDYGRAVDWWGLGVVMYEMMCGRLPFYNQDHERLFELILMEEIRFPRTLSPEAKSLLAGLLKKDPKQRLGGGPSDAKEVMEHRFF
Description: (§5) The IC50 values of Example compounds of the invention for AKT1, AKT2 and AKT3 were measured using HTRF (Homogeneous Time Resolved Fluorescence) KinEASE assays (62ST3PEB—1000 tests or 62ST3PEC—20,000 tests) from cisbio.com, according to manufacturer's instructions.

DNA-PK = DNA-PK (Homo sapiens, UniProt P78527); test: DNA-PK enzymatic inhibition assay (HTRF KinEASE); type: biochemical; details: read-out: DNA-PK pIC50 (converted)
Description: The IC50 values of Example compounds of the invention for DNA-PK were measured using the HTRF KinEASE assay as described above.

PEO4 cells [2] = test: Relative re-sensitisation ratio of apoptosis induction (caspase 3/7 normalised to MTT) with cisplatin; type: cell-based; details: compound at 20 μM, triciribine at 25 μM, cisplatin 25 μM, 24 h
Description: Cell viability was determined for different assays (as described in FIGS. 1 and 2, Table 5) in optically clear 96 well plates using the standard 3-(4, 5-dimethylthiazol-2-yl)-2, 5-diphenyl tetrazolium bromide (MTT) assay, which is a colorimetric method for determining the number of metabolically active cells in cytotoxicity assays. MTT is bioreduced by mitochondrial dehydrogenase enzymes into a coloured solid formazan product. MTT reagent (Sigma, UK) was initially prepared by dissolving in PBS at a concentration of 3 mg/ml. Following relevant drug treatments at different time points and cell lines (described in results section and FIGS. 1 and 2), MTT reagent was added to each experimental well at a final concentration of 0.5 mg/ml. After incubation for 3 h at 37° C. 5% CO2, an equal volume of stop solution (10% SDS in 0.01% HCl) was added and formed formazan crystals were allowed to dissolve shaking overnight. The following day, the optical density was read at 570 nm and analysis performed as per each assay type.
as §2
. Apoptosis (caspase 3/7) and viability (MTT) assays were carried out as described for each assay protocols and the phenotypic apoptosis assays above. Relative apoptosis induction was inferred from caspase 3/7 assay values normalised to the standard MTT viability assay values of each corresponding well. […]

AKT3 = AKT3 (Homo sapiens, UniProt Q9Y243); test: AKT3 enzymatic inhibition assay (HTRF KinEASE); type: biochemical; details: read-out: AKT3 pIC50 (converted)
Chain of AKT3 (Q9Y243 148-405 limits assumed): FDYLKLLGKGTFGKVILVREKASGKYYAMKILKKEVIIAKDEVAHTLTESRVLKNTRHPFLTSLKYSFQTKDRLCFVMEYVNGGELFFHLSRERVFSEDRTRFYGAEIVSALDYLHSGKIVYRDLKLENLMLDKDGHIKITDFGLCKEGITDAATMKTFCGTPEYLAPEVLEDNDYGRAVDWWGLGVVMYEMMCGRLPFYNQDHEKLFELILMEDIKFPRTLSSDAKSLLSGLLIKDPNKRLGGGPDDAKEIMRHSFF
Description: as §5

AKT1 = AKT1 (Homo sapiens, UniProt P31749); test: AKT1 enzymatic inhibition assay (HTRF KinEASE); type: biochemical; details: read-out: AKT1 pIC50 (converted)
Chain of AKT1 (P31749 150-408 limits assumed): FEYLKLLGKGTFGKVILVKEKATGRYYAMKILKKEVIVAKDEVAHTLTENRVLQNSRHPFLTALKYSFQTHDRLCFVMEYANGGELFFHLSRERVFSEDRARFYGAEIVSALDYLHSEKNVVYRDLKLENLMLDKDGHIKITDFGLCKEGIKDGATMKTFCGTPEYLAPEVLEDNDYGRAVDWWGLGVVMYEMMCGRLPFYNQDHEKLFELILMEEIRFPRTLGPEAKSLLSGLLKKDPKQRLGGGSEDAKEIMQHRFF
Description: as §5

[3] = system: platinum sensitive cell line PEO1; test: Isobologram (Loewe synergy/antagonism, MTT viability) with cisplatin in PEO1; type: cell-based; details: PEO1, 72 hours, MTT readout
Description: (§6) . Data shown is n=3. Decreasing negative numbers within each table indicate increasing levels of antagonism, increasing positive numbers indicate increasing levels of synergy between cisplatin and inhibitor compounds.
(§7) Cell viability was determined for different assays (as described in FIGS. 1 and 2, Table 5) in optically clear 96 well plates using the standard 3-(4, 5-dimethylthiazol-2-yl)-2, 5-diphenyl tetrazolium bromide (MTT) assay, which is a colorimetric method for determining the number of metabolically active cells in cytotoxicity assays. MTT is bioreduced by mitochondrial dehydrogenase enzymes into a coloured solid formazan product. […] The following day, the optical density was read at 570 nm and analysis performed as per each assay type.
(§8) All cell lines (PEO1, PEO4 and SKOV3) were seeded out 24 hours prior to treatment into 96 well plates at 10,000 cells per well in triplicate for each inhibitor compound. […] Following 72 hours incubation, cell viability was assessed using the MTT assay (n=3). IC50 values for each compound was determined using GraphPad Prism software, non-linear regression of log (inhibitor) versus response (three parameters). All isobologram assays used the standard MTT protocol as described above for assay readout. […] Following 72 h incubation, cell viability was assessed using MTT assays as described above. […]

[4] = system: platinum resistant cell line PEO4; test: Isobologram (Loewe synergy/antagonism, MTT viability) with cisplatin in PEO4; type: cell-based; details: PEO4, 72 hours, MTT readout
Description: as §6, §7, §8

[5] = system: platinum resistant epithelial ovarian cancer cell line SKOV3; test: Isobologram (Loewe synergy/antagonism, MTT viability) with cisplatin in SKOV3; type: cell-based; details: SKOV3, 72 hours, MTT readout
Description: as §6, §7, §8

[6] = inhibitor 10 μM + cisplatin 25 μM
[7] = inhibitor 10 μM + cisplatin 25 μM, 24 hours

Compound	apoptosis (re-sensitisation) in combination with cisplatin (PEO4 cells [1]; [6])	apoptosis (re-sensitisation) in combination with cisplatin (SKOV3 cells; [7])	IC50 (AKT2)	IC50 (DNA-PK)	Relative re-sensitisation ratio of apoptosis induction (caspase 3/7) relative to triciribine phosphate (PEO4 cells [2])	activity in phenotypic in vitro apoptosis platinum re-sensitisation assays (SKOV3 cells)	IC50 (AKT3)	IC50 (AKT1)	also measured
O=c1cc(N2CCOCC2)oc2c(-c3cccc4c3sc3ccccc34)cccc12 [NU7441, 8-dibenzothiophen-4-yl-2-morpholin-4-ylchromen-4-one]	showed re-sensitisation	showed re-sensitisation							
CN(C)CCNC(c1ccc(Cl)cc1)C1CCN(c2ncnc3[nH]nc(C(F)(F)F)c23)CC1 (single isomer, unassigned; (+)) [Example 12a, (+)-N^1-((4-chlorophenyl)(1-(3-(trifluoromethyl)-1H-pyrazolo[3,4-d]pyrimidin-4-yl)piperidin-4-yl)methyl)-N^2,N^2-dimethylethane-1,2-diamine]			1.41 nM	0.158 nM	1.2	active	0.219 nM	0.575 nM	
CCn1c(-c2nonc2N)nc2c(C#CC(C)(C)O)ncc(OC[C@H]3CCCNC3)c21 [GSK-3g, 4-[2-(4-amino-1,2,5-oxadiazol-3-yl)-1-ethyl-7-[[(3S)-piperidin-3-yl]methoxy]imidazo[4,5-c]pyridin-4-yl]-2-methylbut-3-yn-2-ol, reference compound]				10.5 nM		inactive			
CN(C)CCOC(c1ccc(Cl)cc1)C1CCN(c2ncnc3[nH]nc(Br)c23)CC1 (centres unmarked) [Example 2, 2-((1-(3-bromo-1H-pyrazolo[3,4-d]pyrimidin-4-yl)piperidin-4-yl)(4-chlorophenyl)methoxy)-N,N-dimethylethan-1-amine]			10.5 nM	3.89 nM	2.9	active	3.63 nM	5.75 nM	
CN(C)CCNC(c1ccc(Cl)cc1)C1CCN(c2ncnc3[nH]nc(C(F)(F)F)c23)CC1 (single isomer, unassigned; (-)) [Example 12b, (−)-N^1-((4-chlorophenyl)(1-(3-(trifluoromethyl)-1H-pyrazolo[3,4-d]pyrimidin-4-yl)piperidin-4-yl)methyl)-N^2,N^2-dimethylethane-1,2-diamine]			5.5 nM	5.37 nM	1.0	active	0.832 nM	3.39 nM	
CN(C)CC(c1ccc(Cl)cc1)N1CCN(c2ncnc3[nH]nc(Br)c23)CC1 (centres unmarked) [Example 1, 2-[4-(3-bromo-1H-pyrazolo[3,4-d]pyrimidin-4-yl)piperazin-1-yl]-2-(4-chlorophenyl)-N,N-dimethyl-ethanamine]			0.55 nM	0.24 nM	3.0	active	0.112 nM	0.324 nM	synergy in combination with cisplatin (Loewe isobologram analysis) [3]: superior synergy; apoptosis (re-sensitisation) in combination with cisplatin compared to cisplatin alone (PEO4 cells [1]; inhibitor 2 μM + cisplatin 25 μM): statistically significant increases in apoptosis; synergy in combination with cisplatin (Loewe isobologram analysis) [4]: strong synergy; synergy in combination with cisplatin (Loewe isobologram analysis) [5]: strong synergy; apoptosis (re-sensitisation) in combination with cisplatin compared to cisplatin alone (SKOV3 cells; inhibitor 2 μM + cisplatin 25 μM, 24 hours): statistically significant increases in apoptosis
CC(C)NC[C@@H](C(=O)N1CCN(c2ncnc3c2[C@H](C)C[C@H]3O)CC1)c1ccc(Cl)cc1 [Ipatasertib, (2S)-2-(4-chlorophenyl)-1-[4-[(5R,7R)-7-hydroxy-5-methyl-6,7-dihydro-5H-cyclopenta[d]pyrimidin-4-yl]piperazin-1-yl]-3-(propan-2-ylamino)propan-1-one]									apoptosis (re-sensitisation) in combination with cisplatin (PEO4 cells [1]; inhibitor 20 μM + cisplatin 25 μM): showed re-sensitisation; apoptosis (re-sensitisation) in combination with cisplatin (SKOV3 cells; inhibitor 20 μM + cisplatin 25 μM, 24 hours): showed re-sensitisation
Cn1ncc(Cl)c1-c1cc(C(=O)N[C@H](CN)Cc2ccc(F)c(F)c2)oc1Cl [Uprosertib, N-[(2S)-1-amino-3-(3,4-difluorophenyl)propan-2-yl]-5-chloro-4-(4-chloro-2-methylpyrazol-3-yl)furan-2-carboxamide]	showed re-sensitisation	showed re-sensitisation							
CO[C@@H](C)Cn1c(=O)n(C)c2cnc3ccc(-c4cncc(C(C)(C)O)c4)cc3c21 [LY3023414, 8-[5-(2-hydroxypropan-2-yl)pyridin-3-yl]-1-[(2S)-2-methoxypropyl]-3-methylimidazo[4,5-c]quinolin-2-one]	showed re-sensitisation	showed re-sensitisation							
Cn1ncc(Cl)c1-c1cc(C(=O)N[C@H](CN)Cc2cccc(F)c2)sc1Cl [Afuresertib, N-[(2S)-1-amino-3-(3-fluorophenyl)propan-2-yl]-5-chloro-4-(4-chloro-2-methylpyrazol-3-yl)thiophene-2-carboxamide]	showed re-sensitisation	showed re-sensitisation							
